Laboratory results as given in US20080241208A1, “Methods, Compositions and Devices For Promoting Anglogenesis” (priority 2005, published 2008).

Tests used:
[1] = tested on: Rabbits; experiment: In-vivo angiogenesis rabbit subcutaneous implant studies
Description: Rabbits were implanted subcutaneously with nitric oxide generating agent dibenzo[e,k]-2,3,8,9-tetramethyl-1,4,7,10-tetraaza-cyclododeca-1,3,7,9-tetraene, cyclen and plain polymer disks.

[2] = tested on: HUVECs; experiment: In-vitro angiogenesis model: network formation in collagen gel matrix; assay type: cell-based; conditions: pulsed with PMA, bFGF and NOC18 (10-9) for 2 hr followed by PMA, bFGF and VEGF-C for 70 hr; AngioQuant; FIG. 3
Description: FIG. 4 depicts network formation in HUVECs cultured in collagen gel matrix and treated with PMA, bFGF, and VEGF-C for 72 hr (Positive control). […] Image on left of each figure is stained with phalloidin (cytoskeletal Actin-F marker) and the nuclear dye, Hoechst. Image on right depicts network formation (red lines) used by AngioQuant quantification program (Niemiströ et al 2005). Magnification=4×. The number of networks is 48 in FIG. 3, 44 in FIG. 4, 12 in FIG. 5.

Row | Structure (SMILES) | blood vessel formation around disks ([1]; explants sectioned and stained with H&E, 20× magnification) | angiogenic activity versus control ([1]; subcutaneous polymer disk explants at 28 d and 8 weeks) | number of networks [2]
1 | CC1=C(C)N=c2ccccc2=NC(C)=C(C)N=c2ccccc2=N1 [dibenzo[e,k]-2,3,8,9-tetramethyl-1,4,7,10-tetraaza-cyclododeca-1,3,7,9-tetraene] | increased blood vessel formation | increased angiogenic activity | 
2 | NCCN(CCN)/[N+]([O-])=N/O [NOC18] |  |  | 48
